Literature values, collected in patent publication US6369115B1, “Stabilized powder formulations” (Dura Pharmaceuticals, Inc., priority 2000, dated 2002).

For `COc1ccc(CC(C)NCC(O)c2ccc(O)c(NC=O)c2)cc1` (centres unmarked) [Formoterol, N-[2-hydroxy-5-[1-hydroxy-2-[[2-(4-methoxyphenyl)-1-methylethyl]amino]ethyl]phenyl]formamide], the solubility in water is given as “soluble in water”.

In the case of `CCC(=O)O[C@]1(C(=O)SCF)[C@H](C)C[C@H]2[C@@H]3C[C@H](F)C4=CC(=O)C=C[C@]4(C)[C@@]3(F)[C@@H](O)C[C@@]21C` [fluticasone propionate, (6 alpha, 11 beta, 16 alpha, 17 alpha)-6,9,-difluoro-11-hydroxy-16-methyl-3-oxo-17-(1-oxopropoxy)androsta-1,4-diene-17-carbothioic acid, S-fluoromethyl ester], the solubility in water is given as “insoluble in water”.
